Source: article PMC3881672, “In Vitro Permeation of Micronized and Nanonized Alaptide from Semisolid Formulations” (The Scientific World Journal, 2013)
Marks after values point to notes of the source that are not given here.

Experiments:
[1] = In vitro transdermal permeation, Franz diffusion cell; details: for Cumulative permeated amounts Q t: mean ± SD n = 5; for apparent permeability coefficient K p × 10^−3: Kp = J/Cd, Cd 1.0 × 10^4 μg/mL
CYP1B1 = tested on: CYP1B1; parameters: method as in PMID 3726896, PMID 2905482; details: hepatocytes; cited from earlier work
[2] = parameters: method as in PMID 3726896, PMID 1687590; details: similar metabolic profile also found in man; cited from earlier work
[3] = parameters: method as in PMID 3726896, PMID 2905482; details: cited from earlier work
[4] = parameters: method as in ref 8, 9 = [8]; 8 Radl S Kasafirek E Krejci I Alaptide Drugs of the Future 1990 15 445 447 || [9]; 9 Jampílek J Opatrilova R Rezacova A Oktabec Z Dohnal J Inventors; Faculty of Pharmacy, University of Veterinary and Pharmaceutical Sciences Brno, assignee, “Alaptide: Methods of effecting its solubil; details: octanol-water; cited from earlier work
[5] = parameters: method as in ref 8, 9 = [8]; 8 Radl S Kasafirek E Krejci I Alaptide Drugs of the Future 1990 15 445 447 || [9]; 9 Jampílek J Opatrilova R Rezacova A Oktabec Z Dohnal J Inventors; Faculty of Pharmacy, University of Veterinary and Pharmaceutical Sciences Brno, assignee, “Alaptide: Methods of effecting its solubil; details: cited from earlier work
CYP1A1 = tested on: CYP1A1; parameters: method as in PMID 3726896, PMID 2905482; details: hepatocytes; cited from earlier work
experimental injury = tested on: experimental injury; parameters: method as in ref 8 = [8]; 8 Radl S Kasafirek E Krejci I Alaptide Drugs of the Future 1990 15 445 447; details: pigs; cited from earlier work
CYP1A2 = tested on: CYP1A2; parameters: method as in PMID 3726896, PMID 2905482; details: hepatocytes; cited from earlier work
[6] = tested on: experimental skin injuries; parameters: method as in ref 8 = [8]; 8 Radl S Kasafirek E Krejci I Alaptide Drugs of the Future 1990 15 445 447; details: rats; cited from earlier work

C[C@@H]1NC(=O)C2(CCCC2)NC1=O [Micro, (S)-8-Methyl-6,9-diazaspiro[4.5]decan-7,10-dione]
log K p ([1]; from buffer): −1.77
Cumulative permeated amounts Q t ([1]; from buffer, 0.5 h): 12.6 ± 1.9^a μg/cm^2
Cumulative permeated amounts Q t ([1]; from buffer, 1 h): 40.1 ± 8.0^a μg/cm^2
Cumulative permeated amounts Q t ([1]; from buffer, 2 h): 150.8 ± 7.2^a μg/cm^2
Cumulative permeated amounts Q t ([1]; from buffer, 4 h): 418.3 ± 24.6^b μg/cm^2
Cumulative permeated amounts Q t ([1]; from buffer, 6 h): 1189.0 ± 105.9^d μg/cm^2
Cumulative permeated amounts Q t ([1]; from buffer, 24 h): 3897.1 ± 295.6^f μg/cm^2
Cumulative permeated amounts Q t ([1]; from cream 1% (w/w), 0.5 h): 89.9 ± 4.0^a μg/cm^2
Cumulative permeated amounts Q t ([1]; from cream 1% (w/w), 1 h): 206.7 ± 8.9^a μg/cm^2
Cumulative permeated amounts Q t ([1]; from cream 1% (w/w), 2 h): 568.7 ± 7.2^b μg/cm^2
Cumulative permeated amounts Q t ([1]; from cream 1% (w/w), 4 h): 1414.5 ± 21.3^d μg/cm^2
Cumulative permeated amounts Q t ([1]; from cream 1% (w/w), 6 h): 2533.7 ± 9.2^f μg/cm^2
Cumulative permeated amounts Q t ([1]; from cream 1% (w/w), 24 h): 10602.6 ± 18.2^h μg/cm^2
log K p ([1]; from gel): −1.23
Cumulative permeated amounts Q t ([1]; from gel 1% (w/w), 0.5 h): 220.5 ± 11.1^abc μg/cm^2
Cumulative permeated amounts Q t ([1]; from gel 1% (w/w), 1 h): 401.6 ± 30.9^c μg/cm^2
Cumulative permeated amounts Q t ([1]; from gel 1% (w/w), 2 h): 626.4 ± 211.1^d μg/cm^2
Cumulative permeated amounts Q t ([1]; from gel 1% (w/w), 4 h): 1474.5 ± 306.9^f μg/cm^2
Cumulative permeated amounts Q t ([1]; from gel 1% (w/w), 6 h): 1927.6 ± 241.2^g μg/cm^2
Cumulative permeated amounts Q t ([1]; from gel 1% (w/w), 24 h): 13766.8 ± 92.8^i μg/cm^2
Cumulative permeated amounts Q t ([1]; from ointment 1% (w/w), 0.5 h): 75.3 ± 5.4^cd μg/cm^2
Cumulative permeated amounts Q t ([1]; from ointment 1% (w/w), 1 h): 84.8 ± 7.3^de μg/cm^2
Cumulative permeated amounts Q t ([1]; from ointment 1% (w/w), 2 h): 96.7 ± 5.9^fg μg/cm^2
Cumulative permeated amounts Q t ([1]; from ointment 1% (w/w), 4 h): 112.4 ± 7.3^h μg/cm^2
Cumulative permeated amounts Q t ([1]; from ointment 1% (w/w), 6 h): 126.4 ± 3.7^i μg/cm^2
Cumulative permeated amounts Q t ([1]; from ointment 1% (w/w), 24 h): 151.9 ± 9.5^j μg/cm^2
permeation through the skin, fold more than the nanonized form ([1]; from the buffer and other semisolid pharmaceutical compositions): ca. 2 fold
lag time T lag ([1]; medium buffer): 0.69 ± 0.38 h
apparent permeability coefficient K p × 10^−3 ([1]; medium buffer): 16.84 10^−3 cm/h
nonsteady-state permeation flux J ([1]; medium buffer, linearized Q t vs time, six time points): 168.4 ± 8.7 μg/cm^2/h
lag time T lag ([1]; medium cream): 0.57 ± 0.01 h
nonsteady-state permeation flux J ([1]; medium cream): 452.2 ± 0.8 μg/cm^2/h
apparent permeability coefficient K p × 10^−3 ([1]; medium cream): 45.22 10^−3 cm/h
lag time T lag ([1]; medium gel): 1.03 ± 0.23 h
nonsteady-state permeation flux J ([1]; medium gel): 588.0 ± 4.8 μg/cm^2/h
apparent permeability coefficient K p × 10^−3 ([1]; medium gel): 58.80 10^−3 cm/h

C[C@@H]1NC(=O)C2(CCCC2)NC1=O [alaptide, (S)-8-Methyl-6,9-diazaspiro[4.5]decan-7,10-dione]
Induction of CYP1B1 (CYP1B1): did not occur
permeation through the skin from ointment ([1]; both forms of alaptide, ointment): minimal
excretion [2]: excreted unchanged, mostly via urine
toxic effects (including skin irritation) [3]: No toxic effects
experimental log P o/w [4]: 1.39
solubility [5]: poorly soluble
stability ([5]; sunlight): stable in the sunlight
Induction of CYP1A1 (CYP1A1): did not occur
skin regeneration after application on experimental injury (experimental injury): faster skin regeneration
Induction of CYP1A2 (CYP1A2): did not occur
curing of experimental skin injuries [6]: accelerated curing experimental skin injuries
